Read-outs that look alike come from different tables or passages of the source.
How the values were obtained:
HST2 [1] = target: T1, HST2 (Saccharomyces cerevisiae, UniProt P53686); test: HST2 steady-state deacetylation reactions, substrate saturation curves (HPLC); type: biochemical, yeast
Text: Materials. [^3H]Acetyl-CoA (1.88 Ci/mmol) and Na-[^3H]-acetate (100,000 cpm/nmol) was from NEN Life Sciences Products. Nicotinamide, ADP-ribose, and nicotinamide adenine dinucleotide (NAD) were purchased from Sigma Chemical Company. Histone H3 peptide, […] and the Lysine 14 acetylated H3 peptide (AcLys-14), corresponding to the 20 amino-terminal residues of human histone H3 was synthesized by the Protein Chemistry Core Lab at Baylor College of Medicine. Histidine tagged full length HST2 was recombinantly expressed and purified from Escherichia coli BL21DE3 bacteria using a T7 polymerase-based expression. […] HST2 eluted at 200 mM imidazole and was determined to be >95% pure by scanning densitometry of commassie-stained SDS-PAGE. […] The peaks of absorbance at 214/260 nm were collected and subjected to mass spectral analysis. [^3H]-acetate was detected by liquid scintillation counting. […]
Typical HST2 steady-state reactions to monitor deacetylation of AcLys-14 H3 peptide or nicotinamide formation were carried out at 37° C. in 50 mM Tris, pH 7.5 buffer. Rates of product formation were determined at various concentrations of AcLys-14 H3 peptide (5-300 μM) and NAD^+ (5-600 μM). During the linear portion of the initial velocity, the reactions were quenched with TFA to 1% and product formation was monitored by the HPLC analysis described above. […]

HST2 [2] = target: T1, HST2; test: Rapid-reaction single turnover quench-flow analysis; type: biochemical, yeast; conditions: HST2, excess NAD^+, sub-stoichiometric [^3H]-AcLys14 H3, 22±3° C., pH 7.5, single exponential fit
Text: FIGS. 5A-5C are a series of graphs showing that acetate is not a primary product of HST2-catalyzed histone/protein deacetylation. H3 peptide was stoichiometrically acetylated on Lys-14 by the histone acetyltransferase P/CAF and using [^3H]-AcCoA. Monoacetylated [^3H]-AcLys-14 H3 peptide was then purified by HPLC (FIG. 5A) and utilized as a substrate in the HST2 deacetylation reactions (FIG. 5B). Upon complete consumption of [^3H]-AcLys-14 H3 by HST2, all of the original [^3H] from H3 peptide was converted to a labeled product that eluted much later than authentic acetate. Conditions: 375 nM HST2, 175 μM NAD^+, 5 μM [^3H]-Lys14 AcH3, 1 mM DTT, for 1 min at 37° C. prior to quenching with TFA to a final concentration of 1%. FIG. 5C: Single turnover rapid quench-flow analysis. […] Quantification of [^3H]-AcLys14 H3 peptide (diamonds) and the [^3H]-acetate-adduct (circles) was accomplished by liquid scintillation counting of these species separated using reverse phase HPLC. […]
P/CAF [^3H]-monoacetylation of H3 peptide. […] Every mass spectrum was recorded as the sum of 20 consecutive spectra, each produced by a single pulse of photons. […] The amount of [^3H]-AcLys14 H3 peptide and [^3H]-O-acetyl ADP ribose was determined by liquid scintillation counting of these species separated on reverse phase HPLC. […]

SIR2 family of enzymes = target: T2, SIR2 family of enzymes (Saccharomyces cerevisiae, UniProt P53686); test: HST2 steady-state reactions with NGD as alternative substrate to NAD; type: biochemical
T2 construct: Histidine tagged full length HST2 was recombinantly expressed and purified from Escherichia coli BL21DE3 bacteria; Histidine tag; made in house; host or cells: Escherichia coli BL21DE3
T2 sequence (P53686 whole entry): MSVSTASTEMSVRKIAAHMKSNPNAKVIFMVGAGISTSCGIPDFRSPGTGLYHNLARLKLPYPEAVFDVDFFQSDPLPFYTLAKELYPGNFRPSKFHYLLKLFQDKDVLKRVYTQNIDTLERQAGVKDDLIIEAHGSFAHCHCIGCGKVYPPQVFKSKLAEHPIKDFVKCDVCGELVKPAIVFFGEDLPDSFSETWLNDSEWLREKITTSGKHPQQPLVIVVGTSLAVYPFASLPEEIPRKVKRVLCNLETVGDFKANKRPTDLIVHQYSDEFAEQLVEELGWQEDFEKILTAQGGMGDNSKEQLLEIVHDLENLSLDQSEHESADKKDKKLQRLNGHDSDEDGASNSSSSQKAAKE
Text: The details of the reaction conditions are as described in the materials and methods section. This enzymatic process may be used to advantage to generate novel O-acetyl-nucleotide analogs. These analogs may be used in the development of inhibitors for SIR2 and SIR homologs, or for the proteins/enzymes that normally bind/utilize O-acetyl-ADP ribose. More importantly, these enzyme-derived nucleotide analogs may serve as potent therapeutics for cancer and aging, releasing the block for transcriptionally-silenced genes that have been inappropriately silenced during tumorigenesis and aging, as discussed earlier.
Typical HST2 steady-state reactions to monitor deacetylation of AcLys-14 H3 peptide or nicotinamide formation with nicotinamide guanine dinucleotide (NGD) as an alternative substrate to NAD were carried out at various concentrations of AcLys-14 H3 peptide (5-100 μM) and NGD (10-400 μM). During the linear portion of the initial velocity, the reactions were monitored by reverse phase HPLC analysis on a Beckman Ultrasphere column (4.6 mm×15 cm). Samples were injected in 0.05% trifluoroacetic acid (TFA)/H2O for 1 min before a linear gradient of 0-40% acetontrile in 1-41 min.

[3] = system: poly(ADP-ribosyl)transferases and SIR2 enzymes; conditions: poly(ADP-ribosyl)transferases and SIR2 enzymes exhibit similar values; read-out: Km values for NAD^+; cited from earlier work

T1 sequence (P53686 whole entry): as above

Which results are given for “ARTKQTARKSTGG(AcK)APRKQL [AcLys-14 H3, reference compound]”?
Km (HST2 [1]; estimated, read-out: Km for AcLys-14 H3): < 0.5 µM; rate constant of AcLys-14 H3 peptide deacetylation (substrate consumption) (HST2 [2]): 2.0 ± 0.1 s⁻¹

With `NC(=O)c1ccc[n+]([C@@H]2O[C@H](COP(=O)([O-])OP(=O)(O)OC[C@H]3O[C@@H](n4cnc5c(=O)[nH]c(N)nc54)[C@H](O)[C@@H]3O)[C@@H](O)[C@H]2O)c1` [NGD, nicotinamide guanine dinucleotide] as the compound, how does the “ability to serve as substrate, generating O-acetyl-NDP ribose product” value (SIR2 family of enzymes) read?
Its value is “can serve as substrates for the SIR2 family of enzymes”.

With `NC(=O)c1ccc[n+]([C@@H]2O[C@H](COP(=O)([O-])OP(=O)(O)OC[C@H]3O[C@@H](n4cnc5c(N)ncnc54)[C@H](O)[C@@H]3O)[C@@H](O)[C@H]2O)c1` [NAD^+, nicotinamide adenine dinucleotide] as the compound, how does the Km (HST2 [1]; 37° C., 50 mM Tris pH 7.5, read-out: Km for NAD^+) read?
Its Km is 70 µM.

And the Km [3]?
The Km was 50 to 70 µM.

— patent US7521432B2, “Compositions and methods for identifying agents which regulate chromosomal stability, gene activation and aging” (priority 2000, dated 2009)
